Assay in all cases: growth of human tumour cells (NCI), 48 h
In assay [1] the test system is A498 renal.
Assay [2] relates to RXF 393 renal.
Assay [3] deals with UACC-257 melanoma.
Assay [4] relates to SF-295 CNS.
Assay [5] relates to HS 578T breast.
Assay [6] relates to HOP-62 NSCLC.
The test system of assay [7] is LOX IMVI melanoma.
Assay [8] has as its system KM12 colon.
In assay [9] the test system is NCI/ADR-RES ovarian.
The test system of assay [10] is MDA-MB-231 breast.
Assay [11] deals with SF-539 CNS.
Assay [12] relates to 786-0 renal.
For assay [13], the system named is NCI-H226 lung.
Assay [14] has as its system K-562 leukemia.
Assay [15] has as its system HOP-92 NSCLC.
In assay [16] the test system is OVCAR-3 ovarian.
The test system of assay [17] is SNB-19 CNS.
Assay [18] concerns NCI-H460 lung.
Assay [19] deals with UO-31 renal.
Assay [20] concerns MDA-N.

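Grown in 96-well plates, cells were treated for 48 hours with each compound at five concentrations. Insufficient inhibition: endpoint recorded as highest concentration tested. At the TGI there is no net growth.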

Turning to `COC(=O)Nc1nc2ccc(S(=O)(=O)SC)cc2[nH]1`, the TGI in assay [1] was 99.7 µM; in assay [2] it was 17.9 µM; in [3], 45.5 µM; in [4], greater than 100 µM; in assay [5] it was greater than 100 µM; in assay [6] it was greater than 100 µM. Besides, the TGI in assay [7] was 22.1 µM; in assay [8] it was greater than 100 µM; in [9] it was 82.4 µM; in [10], 40.1 µM; in assay [11] it was 39.3 µM; in assay [12], 16.9 µM. Besides, the TGI in assay [13] was greater than 100 µM; in assay [14] it was greater than 100 µM; in assay [15], 28 µM; in assay [16], greater than 100 µM; in [17], greater than 100 µM; in [18], greater than 100 µM.
As for `COc1cc(Br)cc2cc(-c3cn4c(n3)sc3ccccc34)c(=O)oc12`, the TGI is 51 µM in assay [1]; greater than 75 µM in assay [3]; 58.4 µM in assay [4]; 39.9 µM in assay [5]; greater than 75 µM in [6]; 56.4 µM in [7]. In addition, the TGI is greater than 75 µM in assay [8]; greater than 75 µM in assay [19]; greater than 75 µM in assay [9]; 72.5 µM in [10]; greater than 75 µM in assay [11]; greater than 75 µM in assay [12]. Moreover, the TGI in [14] was 46.4 µM; in assay [15], 47.5 µM; in assay [16], 54.5 µM; in [17], greater than 75 µM; in [18], greater than 75 µM.
`O=C(Nc1nnc(-c2ccc(Cl)cc2)o1)C(SC(=S)N1CCOCC1)c1ccccc1` (stereo unspecified): the TGI in assay [1] is 56.5 µM; in assay [2], greater than 100 µM; in [3], greater than 100 µM; in assay [4], 94.4 µM; in [5], greater than 100 µM; in [6], greater than 100 µM. Moreover, the TGI was 48.2 µM in assay [7]; greater than 100 µM in assay [8]; 30 µM in assay [19]; 90.7 µM in assay [9]; greater than 100 µM in [10]; 34.1 µM in assay [11]. Besides, the TGI was greater than 100 µM in assay [12]; 56.4 µM in assay [13]; greater than 100 µM in assay [14]; 30.2 µM in assay [16]; greater than 100 µM in assay [17]; 53.3 µM in [18].
In the case of `CC(C)OC(=O)/C=C/C(=O)O/C=C/[N+](=O)[O-]`, the TGI in assay [1] is 40.4 µM; in [2], 44 µM; in [3], greater than 100 µM; in assay [4] it was greater than 100 µM; in assay [6], greater than 100 µM; in [7], 32.9 µM. The TGI was 70.6 µM in assay [8]; greater than 100 µM in [19]; greater than 100 µM in assay [9]; greater than 100 µM in assay [10]; greater than 100 µM in assay [11]; greater than 100 µM in [12]. The TGI is greater than 100 µM in [13]; 66.8 µM in assay [14]; greater than 100 µM in [16]; greater than 100 µM in assay [17]; greater than 100 µM in [18].
For the molecule `c1ccc(CNc2nncc3[nH]cnc23)cc1`, the TGI in assay [1], in [3], in assay [4], in [6], in [20] and in assay [7] was greater than 100 µM each time. Moreover, the TGI in assay [8], in [19], in assay [9], in assay [10], in assay [11] and in assay [12] was greater than 100 µM each time. In addition, the TGI in assay [13], in [14], in assay [15] and in assay [16] was greater than 100 µM each time.
With `O=C1NC(=S)NC(=O)C1C(c1ccc(O)cc1)C1C(=O)NC(=S)NC1=O`, the TGI in assay [1], in assay [2], in [3], in [4], in assay [6] and in assay [20] was greater than 100 µM throughout. Further, the TGI in assay [7], in assay [8], in [19], in assay [9], in assay [10] and in assay [12] was greater than 100 µM in each case. For the same molecule, the TGI in [13], in assay [14], in assay [15], in [16], in assay [17] and in assay [18] was greater than 100 µM each time.
For `CCOC1=NC(O)c2cccn2-c2sccc21` (stereo unspecified), the TGI in assay [1], in assay [2], in [4], in assay [6], in [20] and in assay [8] was greater than 100 µM throughout. For the same molecule, the TGI in assay [19], in [9], in assay [10], in assay [11], in assay [12] and in assay [14] was greater than 100 µM in each case. The TGI in assay [15], in assay [16], in assay [17] and in [18] was greater than 100 µM each time.
`CC(=O)O[C@H]1C(=O)[C@@]2(C)[C@H]([C@H](OC(=O)c3ccoc3)[C@]3(O)C[C@H](OC(=O)[C@H](O)[C@@H](NC(=O)c4ccccc4)c4ccccc4)C(C)=C1C3(C)C)[C@]1(OC(C)=O)CO[C@@H]1C[C@@H]2O`: the TGI is greater than 12.5 µM in assay [1]; greater than 11.8 µM in assay [2]; greater than 12.5 µM in assay [3]; greater than 12.5 µM in assay [4]; 0.612 µM in assay [5]; greater than 12.5 µM in assay [6]. Also, the TGI in assay [7] is greater than 12.5 µM; in assay [8], greater than 12.5 µM; in assay [19] it was greater than 12.5 µM; in assay [9], greater than 12.5 µM; in assay [10] it was greater than 12.5 µM; in assay [11], 0.221 µM. Moreover, the TGI in assay [12] is greater than 12.5 µM; in assay [14], 0.156 µM; in assay [15], greater than 12.5 µM; in [16] it was 0.752 µM; in assay [17] it was greater than 12.5 µM; in [18] it was greater than 3.73 µM.
`CC1(C)C[C@@H]2C1CCC1(C)CC2(O)CC[C@H]1O` (stereo partly specified): the TGI in [3], in [4], in assay [5], in [6], in [7] and in [8] was greater than 100 µM throughout. Besides, the TGI in assay [19], in assay [9], in assay [12], in [13], in assay [14] and in assay [15] was greater than 100 µM throughout. Moreover, the TGI in assay [16], in assay [17] and in [18] was greater than 100 µM in each case.
For the molecule `CC(C)=CCC(O)[C@](C)(O)[C@H]1[C@H](O)C[C@@]2(C)[C@@H]3CCc4cc(O)c(OC5OC(CO)C(O)C(O)C5O)cc4C3(C)C(=O)C[C@]12C` (stereo partly specified), the TGI in [1], in assay [2], in [3], in assay [4], in [6] and in assay [20] was greater than 100 µM each time. Moreover, the TGI in assay [8], in assay [19], in [9], in [10], in assay [11] and in assay [12] was greater than 100 µM throughout. Besides, the TGI in [13], in [14], in assay [15], in assay [16], in assay [17] and in assay [18] was greater than 100 µM throughout.
As for `O=C1NC2O[C@H](CNC(=O)c3cc(Br)c[nH]3)CC2(O)N1` (mixture of isomers), the TGI in assay [1], in assay [3], in assay [4], in assay [5], in assay [6] and in assay [8] was greater than 100 µM throughout. The TGI in assay [19], in assay [9], in [10], in assay [11], in assay [12] and in [13] was greater than 100 µM each time. Besides, the TGI in assay [14], in [15], in [16], in [17] and in [18] was greater than 100 µM in each case.
As for `Cn1cc(C2(C)CC(C)(C)c3c2n(C)c2ccccc32)c2ccccc21` (stereo unspecified), the TGI in assay [1], in [2], in assay [3], in [4], in assay [6] and in assay [7] was greater than 100 µM each time. For the same molecule, the TGI in assay [8], in assay [19], in [11], in [12], in assay [13] and in assay [14] was greater than 100 µM in each case. Further, the TGI in assay [15], in assay [16], in assay [17] and in [18] was greater than 100 µM in each case.
`CCOC(=O)c1c(N2CCOCC2)[nH]c(=O)c(C(c2c(Cl)cccc2Cl)c2c(O)c(C(=O)OCC)c(N3CCOCC3)[nH]c2=O)c1O`: the TGI was found to be 20.9 µM in assay [1]; 4.93 µM in assay [2]; 18.7 µM in assay [3]; 30.6 µM in [4]; 19.4 µM in [5]; 30.4 µM in assay [6]. Also, the TGI in assay [7] stood at 9.08 µM; in assay [8], 33.2 µM; in assay [19], 6.37 µM; in [9], 33.8 µM; in assay [10] it was 24.9 µM; in assay [11], 11 µM. In addition, the TGI stood at 6.47 µM in [12]; 27.3 µM in [13]; 6.55 µM in [14]; 8.56 µM in assay [15]; 12.1 µM in [16]; 21.1 µM in assay [17]. The TGI in [18] worked out at 45.2 µM.
Turning to `CCOc1ncn(-c2ccc(NC(=S)NC3OC(CO)C(O)C(O)C3O)cc2)n1` (stereo unspecified), the TGI in assay [3], in [4], in assay [6], in [20], in [7] and in assay [8] was greater than 100 µM throughout. In addition, the TGI in assay [19], in assay [10], in assay [11], in [12], in assay [14] and in assay [15] was greater than 100 µM each time. The TGI in assay [16], in [17] and in assay [18] was greater than 100 µM throughout.
Turning to `N#C/C(=C/NC(N)=S)C(N)=O`, the TGI in [1], in assay [2], in assay [3], in [4], in assay [6] and in assay [20] was greater than 100 µM each time. For the same molecule, the TGI in assay [7], in assay [8], in [19], in [9], in [10] and in assay [11] was greater than 100 µM each time. In addition, the TGI in assay [12], in [13], in [15], in [16], in assay [17] and in [18] was greater than 100 µM throughout.
`CC(C)=C[C@H]1CCC2(OCCO2)[C@]1(C)CO`: the TGI in [1], in [2], in assay [3], in assay [4], in [20] and in [7] was greater than 100 µM in each case. Further, the TGI in assay [8], in assay [19], in assay [9], in [10], in assay [11] and in assay [12] was greater than 100 µM each time. The TGI in assay [13], in assay [17] and in assay [18] was greater than 100 µM in each case.
